Data taken from patent US6893821B2, “Agents that modulate DNA-PK activity and methods of use thereof” (The Regents of the University of California, priority 2000, dated 2005).
“Also recorded” adds a separate entry of the source. Read-outs that look alike come from different tables or passages of the source.

Columns and labels:
DNA-PK = target: T1, DNA-PK (Homo sapiens, UniProt P12956+P13010+P78527); test: In vitro DNA-PK phosphorylation assay (affinity-purified DNA-PK, GST-p53 (1-70) substrate); assay type: biochemical; details: 30° C., 30 minutes; ps-ss ODNs 0-1, po-ISS-ODN 20-100, po-ds-ISS-ODN 0-10, genomic DNAs 1-5 ng/reaction
T1 construct: purchased Promega
Description: The in vitro DNA-PK phosphorylation assay was performed according to Hammarsten et al. (2000), supra, with modification. Briefly, affinity-purified DNA-PK (Promega, Mo.) was incubated with various DNA preparations (described below), 0.5 μg of GST-p53 (1-70) and 3.3 μCi of γ-^32p-ATP in a 20 μl reaction buffer (10 mM Tris-Cl, 5 mM MgCl2, 0.3 mM EDTA and 10 μM ATP) at 30° C. for 30 minutes. The reaction was stopped by addition of 4× loading buffer. The samples were boiled, loaded on 9% SDS-PAGE, transferred onto a PVDF membrane and visualized by autoradiography.
(§1) The ODNs (ps-ss) used include an ISS-ODN with an active CpG motif (AACGTT), a methylated ISS-ODN at the ^5C of the CpG dinucleotide (AA*CGTT) and various control ODNs. These ODNs were incubated at concentrations of 0, 0.1, 0.3, or 1 ng/reaction. The po-ISS-ODN was incubated at concentration of 20, 50 or 100 ng/reaction. The po-ds-ISS-ODN was incubated at concentration of 0, 0.5, 1, 2, 5 or 10 ng/reaction. The bacterial or calf thymus DNAs were each incubated at concentration of 1, 2 or 5 ng/reaction. Electrophoretic gel mobility shift assay (EMSA) was performed as previously described. Chu et al. (1999) Immunity 11:721-731; and Li et al., 1999, supra). In vitro IKK kinase assays were performed using purified IKK derived from Sf9 insect cell lysates as was previously described. Zandi et al. (1998) Science 281:1360-1363.

[1] = test system: bone marrow derived macrophages (BMDM); test: IL-6 and IL-12 levels in BMDM culture supernatants by ELISA; assay type: cell-based, mice
Description: Ku70^−/− and Ku80^−/− mice and their wild-type (wt) control on the 129 genetic background were generated by Dr. G. Li and bred at Memorial Sloan-Kettering Cancer Center (MSKCC), New York, N.Y. BMDM from wt, Ku70^−/− and Ku80^−/− mice (MSKCC) were prepared as was previously published (Martin-Orozco et al. (1999) Int. Immunol. 11:1111), and maintained in DMEM with 10% FBS, antibiotics and 20% L-cell medium and cultured for about 10 days to allow them to mature. BMDM were seeded (2.5×10^5/well in triplicate) on 96-well plates and treated with LPS (10 μg/ml), ISS-ODN (5 μg/ml) or M-ODN (5 μg/ml).
BMDM (2.5×10^5/well) from wt, or Ku70^−/− and Ku80^−/− mice were treated with LPS (1 μg/ml), ISS-ODN (5 μg/ml) or M-ODN (5 μg/ml) for 24 hours. IL-6 (A) or IL-12 (B) levels in the supernatants were determined by ELISA. Results are means±S.D, of 5 separate experiments for wt and Ku70^−/− and 3 separate experiments for Ku80^−/− mice. (C) BMDM were incubated with LPS (10 μg/ml) or ISS-ODN (5 μg/ml) for 6.5 hours. Total RNA was isolated and analyzed for the presence of IL-6, IL-12 and GAPDH messages by a Northern blot assay, as described in Example 1. Results are means±S.D. of 5 separate experiments for wt and Ku70^−/− and 3 separate experiments for Ku80^−/− mice.
DNA-PKcs^−/− and their wt control mice on the 129 genetic background were generated by Dr. G. C. Li and bred at Memorial Sloan-Kettering Cancer Center, New York, N.Y. IKKβ^−/− Tnfr1^−/− mice were generated by Drs. Z-W Li and Karin M. ATM^−/− mice on the C57BL/6 background were generated and bred by Dr. Y. Xu (UCSD) as was previously described (Xu et al.(1996) Genes Dev. 10:2411-2422) while their wild-type (wt) control were purchased from Jackson Laboratories (Bar Harbor, Me.). BMDMs from wt, DNA-PKcs^−/− mice, IKKβ^−/− Tnfr1^−/− and ATM^−/− mice were prepared as was previously published (Martin-Orozco et al. (1999) Intl. Immunol. 11:1111-1118), maintained in DMEM with 10% FBS, antibiotics and 20% L-cell medium and cultured for 7-10 days to allow them to mature. Prior to use BMDM were seeded (2.5×10^5/well in triplicate) in 96-well plates and than treated with LPS (1 μg/ml), ISS-ODN (5 μg/ml) or M-ODN (5 μg/ml), po-ISS-ODN (10 μg/ml) or po-ds-ISS-ODN (10 μg/ml), LPS-free, ultra pure bacterial DNA (E. coli, Sigma) (15 μg/ml) or methylated bacterial DNA or LPS-free, ultra pure calf thymus DNA (Sigma) (15 μg/ml). Methylation of bacterial DNA was performed by SssI methylase (Biolab, Boston, Mass.) (15 μg/ml) following manufacturer's instruction. Where indicated the PI3K inhibitor wortmannin (Wm), at various concentrations, was added to ISS-ODN or LPS stimulated BMDMs. After 24 hours in culture, the supernatants were collected and assayed for IL-6 and IL-12 levels by ELISA kits (PharMingen, San Diego, Calif.).

IKKβ = test: In vitro IKK kinase assay: recombinant IKKβ incubated with DNA-PK with or without ISS-ODN; assay type: biochemical
Description: as §1
To explore a role of ISS-activated DNA-PK in IKK activation we tested whether affinity-purified DNA-PK can directly activate recombinant IKKα or IKKβ purified from Sf9 cells (Zandi et al., 1998, supra). […] Furthermore, although DNA-PKcs phosphorylated IκBα that activity was considerably lower than that achieved by IKKβ plus DNA-PK. […] To further confirm the activation of IKKβ by DNA-PK, we performed a coupled-kinase assay. Recombinant IKKβ was pre-incubated with DNA-PK in the presence or absence of ISS-ODN followed by immunoprecipitation of IKKβ and IκB kinase activity was measured. […] We next determined whether DNA-PK phosphorylates IKKβ.

[2] = test system: bone marrow derived macrophages (BMDM); details: Martin-Orozco et al. (1999); cited from earlier work
[3] = test system: IL-6, IL-12 message in liver; test: RT-PCR for IL-6 and IL-12 message in livers of mice injected i.v. with ODN; assay type: in vivo; details: mice i.v. 200 μl (1 μg/μl in PBS) of ss or ds ODN; 2.5 hours

## 5′-TGACTGTGAACGTTCGAGATGA-3′ [ISS-ODN]
DNA-PK
  DNA-PK activity in vitro (phosphorylation of the N-terminal portion of p53): stimulated DNA-PK activity
[1]; ATM-deficient BMDM
  IL-6 and IL-12 induction: normal induction
[1]; DNA-PKcs-deficient BMDM in comparison to wt
  IL-6 and IL-12 induction: Very low levels
[1]; IKKβ-/- Tnfr-/- BMDM
  IL-6 and IL-12 induction: significantly reduced
[1]; Ku70-/- and Ku80-/- BMDM as compared to wt, 24 hours
  IL-6 and IL-12 secretion: very low levels
IKKβ; incubated with ISS-ODN
  phosphorylation of catalytically inactive IKKβ (KA) by DNA-PK: phosphorylated
IKKβ; pre-incubation with DNA-PK with or without ISS-ODN, then immunoprecipitation of IKKβ
  activation of IKKβ by DNA-PK, coupled-kinase assay: only activates IKKβ in the presence of ISS-ODN
IKKβ; recombinant IKKβ incubated with DNA-PK in the presence of ISS-ODN
  kinase activity of IKKβ measured by IκB phosphorylation: further increased
[2]
  IL-6 and IL-12 secretion: high levels
[3]
  IL-6 and IL-12 message in liver (RT-PCR): readily detected; also recorded: cytokine induction
